From the NIST ThermoML archive (doi:10.1021/je500239t)
Where “and” joins values, the source holds several entries; their conditions need not be identical. Identical values can stand only once. ± gives the expanded uncertainty stated by the source.

Settings: for mass density: Liquid, isochoric method; for surface tension liquid-gas: Ring tensiometer

CCCCCCCCCCCCCC[P+](CCCCCC)(CCCCCC)CCCCCC.O=S(=O)([N-]S(=O)(=O)C(F)(F)F)C(F)(F)F
Settings | mass density [kg/m3]
219.01 K, 845.2 kPa | 1126.5 ± 1.5
225.43 K, 10086 kPa | 1125.99 ± 1.5
225.43 K, 30200 kPa | 1132.83 ± 1.5
232.16 K, 19479 kPa | 1125.46 ± 1.5
233.47 K, 2869.4 kPa | 1117.39 ± 1.5
239.5 K, 10003 kPa | 1116.86 ± 1.5
239.51 K, 29986 kPa | 1124.87 ± 1.5
246.7 K, 20172 kPa | 1116.37 ± 1.5
247.35 K, 40212 kPa | 1124.27 ± 1.5
247.71 K, 1577.7 kPa | 1107.13 ± 1.5
254.34 K, 29850 kPa | 1115.68 ± 1.5
254.34 K, 29998 kPa | 1115.78 ± 1.5
254.36 K, 9848.1 kPa | 1106.63 ± 1.5
255.79 K, 51007 kPa | 1123.62 ± 1.5
262.3 K, 20026 kPa | 1106.02 ± 1.5
262.46 K, 40028 kPa | 1115.06 ± 1.5
263.55 K, 901 kPa | 1095.02 ± 1.5
268.29 K, 100 kPa | 1090.79 ± 0.8
270.61 K, 30010 kPa | 1105.4 ± 1.5
270.69 K, 9770.1 kPa | 1094.49 ± 1.5
270.95 K, 49862 kPa | 1114.43 ± 1.5
273.26 K, 100 kPa | 1087.18 ± 0.8
278.4 K, 100 kPa | 1083.71 ± 0.8
279.46 K, 39911 kPa | 1104.75 ± 1.5
280.16 K, 20417 kPa | 1093.79 ± 1.5
281.02 K, 1048.9 kPa | 1082.63 ± 1.4
283.3 K, 100 kPa | 1079.84 ± 0.79
288.55 K, 100 kPa | 1076.14 ± 0.79
288.56 K, 49907 kPa | 1104.08 ± 1.5
288.91 K, 10149 kPa | 1082.04 ± 1.4
288.92 K, 30030 kPa | 1093.15 ± 1.5
292.93 K, 100 kPa | 1072.95 ± 0.79
298 K, 39766 kPa | 1092.49 ± 1.5
298.17 K, 191.9 kPa | 1068.8 ± 1.4
298.17 K, 19640 kPa | 1081.39 ± 1.4
298.19 K, 100 kPa | 1068.54 ± 0.78
299.08 K, 1497.9 kPa | 1069.18 ± 1.4
303.24 K, 100 kPa | 1065.2 ± 0.78
307.5 K, 49581 kPa | 1091.81 ± 1.5
307.85 K, 10007 kPa | 1068.57 ± 1.4
308.01 K, 100 kPa | 1061.72 ± 0.78
308.08 K, 30024 kPa | 1080.67 ± 1.4
309.27 K, 1043.1 kPa | 1061.06 ± 1.4
313.17 K, 100 kPa | 1057.68 ± 0.77
318.03 K, 39710 kPa | 1079.97 ± 1.4
318.05 K, 100 kPa | 1054.69 ± 0.77
318.08 K, 19797 kPa | 1067.86 ± 1.4
318.16 K, 9063.9 kPa | 1060.46 ± 1.4
318.96 K, 1508.5 kPa | 1054.33 ± 1.4
323.08 K, 100 kPa | 1051.01 ± 0.77
328.31 K, 100 kPa | 1047.34 ± 0.77
328.73 K, 10024 kPa | 1053.67 ± 1.4
328.99 K, 49945 kPa | 1079.21 ± 1.4
329.13 K, 30007 kPa | 1067.09 ± 1.4
329.82 K, 733.9 kPa | 1046.15 ± 1.4
329.83 K, 19983 kPa | 1059.65 ± 1.4
333.03 K, 100 kPa | 1044.1 ± 0.76
338.51 K, 100 kPa | 1040.38 ± 0.76
339.97 K, 40003 kPa | 1066.34 ± 1.4
340.03 K, 20057 kPa | 1052.9 ± 1.4
340.84 K, 1346 kPa | 1038.9 ± 1.4
340.84 K, 10036 kPa | 1045.42 ± 1.4
341.21 K, 30097 kPa | 1058.87 ± 1.4
342.84 K, 100 kPa | 1037.08 ± 0.76
348.34 K, 100 kPa | 1033.83 ± 0.76
350.84 K, 50030 kPa | 1065.58 ± 1.4
353.13 K, 100 kPa | 1030.2 ± 0.75
353.15 K, 20345 kPa | 1044.59 ± 1.4
353.15 K, 31348 kPa | 1052.01 ± 1.4
353.15 K, 40207 kPa | 1058.06 ± 1.4
353.16 K, 11244 kPa | 1038.09 ± 1.4
358.18 K, 100 kPa | 1026.93 ± 0.75
364.28 K, 100 kPa | 1022.11 ± 0.75

Settings | surface tension liquid-gas
273.49 K | 31.49 ± 0.5 mN/m
273.52 K | 31.51 ± 0.5 mN/m
278.33 K | 31.18 ± 0.49 mN/m
278.52 K | 31.21 ± 0.49 mN/m
283.37 K | 30.85 ± 0.49 mN/m
283.39 K | 30.94 ± 0.49 mN/m
288.38 K | 30.66 ± 0.49 mN/m
288.5 K | 30.56 ± 0.48 mN/m
293.37 K | 30.35 ± 0.48 mN/m
298.24 K | 30.13 ± 0.48 mN/m
298.25 K | 30.11 ± 0.48 mN/m
303.15 K | 29.82 ± 0.47 mN/m
303.17 K | 29.89 ± 0.47 mN/m
308.18 K | 29.56 ± 0.47 mN/m
308.21 K | 29.37 ± 0.47 mN/m
313.21 K | 29.15 ± 0.46 mN/m
313.22 K | 29.24 ± 0.46 mN/m
318.2 K | 29.03 ± 0.46 mN/m
318.23 K | 28.86 ± 0.46 mN/m
323.19 K | 28.56 ± 0.46 mN/m
323.28 K | 28.54 ± 0.46 mN/m
328.11 K | 28.34 ± 0.46 mN/m
328.28 K | 27.99 ± 0.46 mN/m
333.15 K | 27.89 ± 0.45 mN/m and 27.98 ± 0.45 mN/m
338.1 K | 27.59 ± 0.45 mN/m
338.13 K | 27.94 ± 0.45 mN/m
343 K | 27.46 ± 0.44 mN/m
343.05 K | 27.3 ± 0.44 mN/m
348 K | 27.14 ± 0.44 mN/m
348.34 K | 26.92 ± 0.44 mN/m
353.32 K | 26.56 ± 0.43 mN/m
353.33 K | 26.79 ± 0.44 mN/m
358.1 K | 26.38 ± 0.43 mN/m
358.49 K | 26.45 ± 0.43 mN/m
364.76 K | 26.01 ± 0.43 mN/m
364.97 K | 25.93 ± 0.43 mN/m
